Measured values taken from publication PMC4977651, “Molecular features of biguanides required for targeting of mitochondrial respiratory complex I and activation of AMP-kinase” (BMC Biology, 2016).
Several values for one entry are separate records, joined by “and”; a condition that tells them apart may be missing. Equal entries are not always repeated.

How the values were obtained:
143B cells = experiment: Membrane potential measurement by TMRM fluorescence; type: cell-based, human
Description: 143B cells were seeded at 5 × 10^5 cells per 10 cm^2 well in DMEM containing 10 % FBS. […] The detached cells from each well were incubated in PBS containing 25 pg/mL tetramethylrhodamine, methyl ester (TMRM) and 20 μg/mL Hoescht stain for 20 min at 37 °C then washed twice and re-suspended in 200 μL PBS. TMRM fluorescence was detected using a NucleoCounter® NC 3000 cytometer with excitation at 530 nm and emission at 575 nm, with the Hoescht stain used to check for consistent cell density between samples.

[1] = target: isolated bovine heart complex I (Bos taurus, UniProt P03887+P03898+P17694+P42026); experiment: NADH:decylubiquinone oxidoreduction by isolated complex I; type: biochemical; settings: bovine heart purified mitochondrial complex I, read-out: average % (rate, % of no-inhibitor control)
isolated bovine heart complex I, sequence (P42026 38-216): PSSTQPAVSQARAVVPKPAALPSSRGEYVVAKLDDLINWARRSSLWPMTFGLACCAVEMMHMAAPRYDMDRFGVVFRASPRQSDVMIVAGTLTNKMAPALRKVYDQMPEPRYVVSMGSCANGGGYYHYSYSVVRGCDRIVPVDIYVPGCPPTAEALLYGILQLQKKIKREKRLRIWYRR
isolated bovine heart complex I, sequence (P17694 34-463): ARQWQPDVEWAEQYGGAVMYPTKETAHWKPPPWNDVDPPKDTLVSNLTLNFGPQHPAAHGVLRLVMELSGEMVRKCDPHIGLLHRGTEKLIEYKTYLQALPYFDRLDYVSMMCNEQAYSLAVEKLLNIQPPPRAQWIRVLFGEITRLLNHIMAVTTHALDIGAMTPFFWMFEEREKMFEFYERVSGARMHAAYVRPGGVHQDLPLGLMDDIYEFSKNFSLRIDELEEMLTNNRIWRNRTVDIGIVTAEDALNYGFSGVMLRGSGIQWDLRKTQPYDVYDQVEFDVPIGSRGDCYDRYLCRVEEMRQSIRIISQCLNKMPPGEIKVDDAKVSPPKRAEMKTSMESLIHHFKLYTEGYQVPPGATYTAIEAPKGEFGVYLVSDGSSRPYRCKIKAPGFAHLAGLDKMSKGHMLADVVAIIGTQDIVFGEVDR
isolated bovine heart complex I, sequence (P03898 whole entry): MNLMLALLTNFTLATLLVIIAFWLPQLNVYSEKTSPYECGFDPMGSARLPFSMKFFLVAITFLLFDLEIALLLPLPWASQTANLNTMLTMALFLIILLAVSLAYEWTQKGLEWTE
isolated bovine heart complex I, sequence (P03887 whole entry): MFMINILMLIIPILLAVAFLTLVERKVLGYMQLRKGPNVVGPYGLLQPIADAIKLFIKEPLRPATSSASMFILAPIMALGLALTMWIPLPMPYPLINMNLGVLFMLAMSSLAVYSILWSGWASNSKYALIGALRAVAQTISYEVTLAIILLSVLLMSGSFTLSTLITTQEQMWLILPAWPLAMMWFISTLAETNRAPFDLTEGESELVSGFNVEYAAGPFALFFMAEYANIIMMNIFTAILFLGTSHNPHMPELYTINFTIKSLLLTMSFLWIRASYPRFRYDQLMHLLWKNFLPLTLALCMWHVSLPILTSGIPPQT
Description: (§1) Complex I and mitochondrial membranes were prepared from Bos taurus (bovine) heart. Intact mitochondria were isolated from rat liver and mouse heart and liver. Membranes were prepared from mouse heart mitochondria by 5 s bursts of sonication at 4 °C and collected by centrifugation (75,000 × g, 1 h).
(§2) Assays were performed at 32 °C in a SpectraMax 96-well plate reader. NADH:decylubiquinone oxidoreduction by complex I at 0.5 μg mL^−1 was measured in 20 mM Tris-HCl (pH 7.2), 0.15 % soy bean asolectin (Avanti Polar Lipids), and 0.15 % 3-((3-cholamidopropyl)dimethylammonium)-1-propanesulfonate (CHAPS, Merck Chemicals Ltd), with 200 μM decylubiquinone and 200 μM NADH, and monitored using ε340–380(NADH) = 4.81 mM^−1 cm^−1 [23]. Catalysis was initiated by addition of NADH and maximal rates determined by linear regression. NADH:O2 oxidoreduction by membranes was measured similarly but using 5 μg mL^−1 membranes in 10 mM Tris-HCl (pH 7.4) and 250 mM sucrose using 200 μM NADH and supplemented with 0.15 mM horse heart cytochrome c (Sigma-Aldrich Ltd.). Succinate:O2 oxidoreduction was measured using 40 μg mL^−1 membranes in 5 mM succinate in 10 mM Tris-HCl (pH 7.4) as described previously. Control experiments included NaCl (to match the ionic strength) or DMSO, as appropriate.
(§3) Experimental values are reported as mean averages ± standard deviation (SD) of technical replicates for large sample sizes and mean averages ± standard error of the mean (SEM) of technical replicates for small sample sizes. Data were analyzed by the unpaired two-tailed Student’s t test. IC50 values were determined using the standard dose-effect relationship (activity (%) = 100 × IC50 / (IC50 + [inhibitor]^m) with the Hill Slope (m) set to unity for purified complex I) and are reported with 95 % confidence intervals.

[2] = target: mouse heart mitochondrial membranes (complex I) (Mus musculus, UniProt P03888+P03899+Q91WD5+Q9DC70); experiment: NADH:O2 oxidoreduction by mouse heart mitochondrial membranes; type: biochemical; settings: read-out: average % (rate, % of no-inhibitor control)
mouse heart mitochondrial membranes (complex I), sequence (P03899 whole entry): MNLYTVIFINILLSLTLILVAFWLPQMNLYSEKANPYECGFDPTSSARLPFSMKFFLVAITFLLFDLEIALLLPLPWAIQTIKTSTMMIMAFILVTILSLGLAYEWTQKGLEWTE
mouse heart mitochondrial membranes (complex I), sequence (P03888 whole entry): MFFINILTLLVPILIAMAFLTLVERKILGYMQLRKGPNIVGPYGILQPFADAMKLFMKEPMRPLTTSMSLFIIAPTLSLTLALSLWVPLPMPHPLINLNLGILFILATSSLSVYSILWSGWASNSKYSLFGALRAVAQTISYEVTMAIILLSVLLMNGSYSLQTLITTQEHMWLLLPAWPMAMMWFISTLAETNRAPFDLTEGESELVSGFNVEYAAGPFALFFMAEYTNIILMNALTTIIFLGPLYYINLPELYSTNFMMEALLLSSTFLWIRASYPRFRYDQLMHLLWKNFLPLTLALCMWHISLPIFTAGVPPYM
mouse heart mitochondrial membranes (complex I), sequence (Q9DC70 36-224): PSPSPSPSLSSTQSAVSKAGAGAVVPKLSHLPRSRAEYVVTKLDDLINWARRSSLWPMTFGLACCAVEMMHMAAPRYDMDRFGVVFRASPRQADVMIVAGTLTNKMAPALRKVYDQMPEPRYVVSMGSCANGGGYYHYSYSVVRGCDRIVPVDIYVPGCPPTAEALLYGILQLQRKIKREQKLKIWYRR
mouse heart mitochondrial membranes (complex I), sequence (Q91WD5 34-463): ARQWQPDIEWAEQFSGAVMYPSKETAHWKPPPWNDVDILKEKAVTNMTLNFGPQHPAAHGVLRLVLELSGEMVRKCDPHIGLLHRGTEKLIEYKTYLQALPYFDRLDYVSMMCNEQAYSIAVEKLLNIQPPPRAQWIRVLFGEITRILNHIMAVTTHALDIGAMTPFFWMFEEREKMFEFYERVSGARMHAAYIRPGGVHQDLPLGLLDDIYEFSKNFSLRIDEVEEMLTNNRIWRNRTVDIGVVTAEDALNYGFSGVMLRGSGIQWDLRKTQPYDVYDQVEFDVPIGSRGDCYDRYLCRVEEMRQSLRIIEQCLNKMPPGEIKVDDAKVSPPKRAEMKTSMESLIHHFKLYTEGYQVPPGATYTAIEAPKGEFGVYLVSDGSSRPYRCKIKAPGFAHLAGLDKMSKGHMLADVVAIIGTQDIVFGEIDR
Description: as §1, §2, §3

[3] = target: bovine heart mitochondrial membranes (complex I) (Bos taurus, UniProt P03887+P03898+P17694+P42026); experiment: NADH:O2 oxidoreduction by bovine heart mitochondrial membranes (complexes I-III-IV); type: biochemical; settings: bovine heart mitochondrial membranes, read-out: average % (rate, % of no-inhibitor control)
bovine heart mitochondrial membranes (complex I), sequence (P42026 38-216): as the sequence (P42026 38-216) above
bovine heart mitochondrial membranes (complex I), sequence (P17694 34-463): as the sequence (P17694 34-463) above
bovine heart mitochondrial membranes (complex I), sequence (P03887 whole entry): as the sequence (P03887 whole entry) above
bovine heart mitochondrial membranes (complex I), sequence (P03898 whole entry): as the sequence (P03898 whole entry) above
Description: as §1, §2, §3

## N#CC(C#N)=NNc1ccc(OC(F)(F)F)cc1 [FCCP, carbonyl cyanide-4-(trifluoromethoxy)phenylhydrazone]
143B cells; after 6.5 h, phenformin at IC50/10 (34 μM), FCCP at 1 μM, n = 3
  TMRM fluorescence, % of the control value: 13.43 ± 1.7%
143B cells; individual replicates, phenformin 6.5 hours
  mean-y (TMRM): 1862.7 and 2673.4 and 1873.5
143B cells; n 3, phenformin 6.5 hours
  TMRM average: 2136.53
  TMRM average, % control: 13.43 % control

## N=C(N)N=C(N)Nc1ccccc1 [compound2]
[1]; inhibitor 0.05 mM
  remaining activity at 50 µM: 89%
[1]; inhibitor 0.10 mM
  remaining activity at 100 µM: 82.1%
[1]; inhibitor 0.20 mM
  remaining activity at 200 µM: 70%
[1]; inhibitor 0.40 mM
  remaining activity at 400 µM: 50.6%
[1]; inhibitor 1.00 mM
  remaining activity at 1000 µM: 33.6%
[1]; inhibitor 2.00 mM
  remaining activity at 2000 µM: 17.4%
[1]; inhibitor 2.50 mM
  remaining activity at 2500 µM: 15.2%
[2]; inhibitor 0.025 mM
  remaining activity at 25 µM: 100%
[2]; inhibitor 0.05 mM
  remaining activity at 50 µM: 91.6%
[2]; inhibitor 0.13 mM
  remaining activity at 130 µM: 95.5%
[2]; inhibitor 0.25 mM
  remaining activity at 250 µM: 81.9%
[2]; inhibitor 0.50 mM
  remaining activity at 500 µM: 59.6%
[2]; inhibitor 1.25 mM
  remaining activity at 1250 µM: 40.4%
[2]; inhibitor 2.50 mM
  remaining activity at 2500 µM: 27%
[3]; inhibitor 0.025 mM
  remaining activity at 25 µM: 91.2%
[3]; inhibitor 0.05 mM
  remaining activity at 50 µM: 80.9%
[3]; inhibitor 0.12 mM
  remaining activity at 120 µM: 74.7%
[3]; inhibitor 0.25 mM
  remaining activity at 250 µM: 59.3%
[3]; inhibitor 0.50 mM
  remaining activity at 500 µM: 43.6%
[3]; inhibitor 1.25 mM
  remaining activity at 1250 µM: 32%
[3]; inhibitor 2.50 mM
  remaining activity at 2500 µM: 21.2%
